The values that follow come from patent US20200315171A1, “PSYLLID PHEROMONE COMPOSITIONS” (The Regents of the University of California, priority 2017, published 2020).

One data set deals with ACP male antennae. The data set can be described thus: Electroantennogram (EAG) responses of ACP male antennae to C1-C6 acids. Details: species or system Diaphorina citri. The protocol: (§1) Electrophysiology. Antennas were mounted, according to a published protocol^26, under a stereoscopic microscope (SZT, BEL Engineering, MB, Italy). Antennae were connected with glass microcapillaries pulled with a PC-10 puller (Narishige, Kanto, Japan). The glass capillaries housed 0.39 mm gold wires (Sigmund Cohn Corp, Mt. Vernon, N.Y.) and were filled with a saline solution (3.7 g NaCl, 0.175 g KCl, 0.17 g CaCl2 in 500 mL of distilled water). Electrodes were connected to a Universal Probe, gain 10× (Syntech, Buchenbach, Germany) and connected to a 2-Chanel IDAC Acquisition Controller (Syntech). The signal was processed with Syntech software (GcEad version 4.6). Two Pasteur pipettes were used one for a flow balance and the other as a stimulus. The stimulus was loaded on a filter paper strip (40×4-mm), which was inserted in the stimulus pipette after evaporation for 1 min. Each cartridge was used only once. The antennal preparation was set at the end of an effluent flow tube, which had two lateral holes (13 cm from the antennal preparations) to accommodate the tips of the Pasteur pipettes (stimulus and flow balance). Humidified continuous flow (0.1 L/min) was generated by a CS-55 Stimulus Controller (Syntech). Flow for stimulus and balance were set at 1 L/min. Stimulus duration was set a 1 s. There was a minimal interval of 1 min between stimuli.

A further data set concerns ACP female antennae. In words: Electroantennogram (EAG) responses of ACP female antennae to acids. To be noted: source dose 10^−1. Set-up: species or system Diaphorina citri. The procedure: as §1
In data set [1] the test system is D. citri adults. In words: Field tests with baited yellow sticky traps in a citrus grove. The class given is in vivo, Diaphorina citri. Particulars: for Males caught: higher-dose field experiment, n=48 per trap. The protocol:
Field Experiment 1: Evaluation of lignoceryl acetate, lygnocerol, formic acid, acetic acid, and propionic acid. These experiments were performed in an organic grove of Valencia sweet orange [Citrus sinensis (L.) Osbeck] grafted on ‘Rangpur’ lime (Citrus limonia Osbeck) with natural infestation of D. citri. For this purpose, yellow stick cards (30 cm in length×10 cm in width) with a 2 cm in diameter central hole were used to assess the attractivity of the test compounds to D. citri adults. Compounds were assessed at doses ranging from 0.01 μg to 100 μg. Hexane was used as a control. Tested compounds were incorporated into slow-release devices made of ES fiber (Ethylene-Propylene Side by Side, Chiso Co. Ltd, Japan). The experiments were designed in Latin square using 16 traps spaced 25 m from each other (4 traps per treatment). They were repeated three times over time and the number of captured ACP adults was recorded each 7 days for 49 days.
(§2) Statistical analyses. […] Each pair of a test and a control in indoor behavioral measurements using an Y-olfactometer or 4-way olfactometer, as well in field tests comparing only a single treatment and a control, was compared by using two-tailed, Wilcoxon matched-pairs signed rank test.

Data set [2] deals with 7-day-old virgin D. citri males. The data set can be described thus: Y-olfactometer behavioral assay, virgin males as responders. The class given is in vivo, Diaphorina citri. The protocol: (§3) Indoor behavioral assays. All behavioral assays were conducted in a climate-controlled room (see above). A glass tube in a Y-shape (central tube 15 cm in length and 3 cm in diameter split into two tubes in a 120° angle with the same dimensions used in the central tube) was placed vertically with the decision arms pointing towards the ceiling (light sources). All connections were made with 0.635-diameter polytetrafluoroethylene (PTFE) tubes (Sigma-Aldrich, Bellefonte, Pa., USA). Clean air was provided by an oil-free air compressor (Schulz MSV6, Schulz, Joinville, SC, Brazil) and humidified into milliQ water before the line was split into two separate lines, each one with an air flowmeter with a range from 0.1 to 1.0 L/min (Brooks Instrument, Hatfield, Pa. USA) to allow balanced flow of […]. […] Insects that crossed the central tube line located 5 cm from the bifurcation within the observation time of 5 min were recorded as responders. […]
(§4) Statistical analyses. […] Field tests with multiple comparison (different doses) were analyzed by ANOVA. Capture data were first transformed into log (x+1) and them means were analyzed by Dunnett's test as well as Tukey's test (P<0.05) by comparing the mean of each column with the mean of the control or with the mean of every other group, respectively.

For data set [3], the system named is D. citri adults. In words: Field tests with transparent traps baited with aged lignoceryl acetate lures. The class given is in vivo, Diaphorina citri. The procedure: Field Experiment 2: Evaluation of aged lignoceryl acetate lures. Lures were prepared and kept in greenhouses for 28 days prior to being fixed in yellow stick cards in the field. Thus, aged lures were tested in the field starting on day 28 until 70 days after preparation of the lures. The area, experimental design, number of traps, and data collection were the same as described above.
Field Experiment 3: Evaluation of lignoceryl acetate lures using transparent traps. To avoid interference from the yellow visual cues from the stick cards, these experiments were performed with transparent acrylic traps (30 cm in length×10 cm in width) and covered with an adhesive glue film (Biostop Cola, Biocontrole, São Paulo, Brazil). The experimental design, number of traps, and data collection were the same as described above.
as §2

Data set [4] is described as follows: SPME analysis of volatiles from lures matured under field conditions. The format is physicochemical. Particulars: lures matured for 5 weeks under field conditions vs new lures. The procedure: Injections were operated in splitless mode with an injector temperature of 250° C. The GC ovens were programmed from 40° C. for 1 min, increased to 300° C. at 10° C./min (held for 50 min). MS transfer line, manifold, and trap were set at 300° C., 50° C., and 217° C., respectively. Quantitative analyses were done on a Shimadzu GC-2010 gas chromatograph equipped with a flame ionization detector (Shimadzu Corp., Kyoto, Japan) and fitted with an HP5-MS capillary column (30 m×0.25 mm i.d.×[…]; Agilent Scientific, Santa Clara, Calif., USA). SPME analyses were done with a 50/30 divinylbenzene (DVB)/carboxen (CAR)/polydimethylsiloxane (PDMS) (Supelco, catalogue number 57328-U). Volatile compounds were collected from the headspace of the samples placed in a closed glass container with a rubber septum on the top. Both laboratories used the same oven temperature program, i.e., starting at 35° C. for 5 min, raising to 70° C. at a rate of 2.5° C./min, then increasing to 150° C. at 5° C./min, and subsequently raising to the final temperature of 250° C. at 20° C./min.

The test system of data set [5] is 7-day-old virgin D. citri females. Particulars: acetic acid 0.01 μL/μL hexane, 100 μL. The text has this: (§5) An air-flow olfactometer, also known as “4-arm olfactometer” or “4-way olfactometer” was constructed^29 (30.0×30.0×2.5 cm in length, width and height, respectively) with acrylic. A constant, charcoal-filtered humidified airflow 0.1 L/min was connected to each odor source, and all airflows converged through individual PTFE tubes to the center of the acrylic arena. Yellow fields were made by adding a yellow laser jet printed-paper below the bottom of the arena with the following color spaces: lightness (84.8±0.04), chroma (98.7±0.40), and hue angle (95.7±0.02) using a colorimeter Minolta CR400 (Konica Minolta Co., Osaka, Japan).^34 Two of the four possible arms received volatiles from acetic acid 0.01 μL/μL hexane (100 μL), whereas the other two remaining received hexane. The psyllids (virgin 7-day-old males or females) were released on the center of the arena. An olfactometer test consisted of the release of a single D. citri and the observation (from 15:00 to 18:00). As a criterion for data collection from each insect, five minutes were allowed for response (first choice). In case of response, 10 minutes were allowed to observe the time spent in each of the four odor fields.
(§6) Statistical analyses. All statistical analyses were done with Prism 7 (GrapPad, La Jolla, Calif.). Each pair of a test and a control in indoor behavioral measurements using an Y-olfactometer or 4-way olfactometer, as well in field tests comparing only a single treatment and a control, was compared by using two-tailed, Wilcoxon matched-pairs signed rank test. Field tests with multiple comparison (different doses) were analyzed by ANOVA. Capture data were first transformed into log (x+1) and them means were analyzed by Dunnett's test as well as Tukey's test (P<0.05) by comparing the mean of each column with the mean of the control or with the mean of every other group, respectively.

The test system of data set [6] is 7-day-old virgin D. citri males. Particulars: acetic acid 0.01 μL/μL hexane, 100 μL.
Source text: as §5, §6

The subject of data set [7] is 7-day-old virgin D. citri females. Particulars: acetic acid 0.01 μL/μL hexane, 100 μL. The procedure: as §3, §4
The source holds these as a separate data set.

For data set [8], the system named is olfactory receptor neurons in ACP antennae. To be noted: reported in reference 28; cited from earlier work.
Where [9] appears, read: yellow sticky traps baited with 0.1 μg.
Setting [10] is: yellow sticky traps baited with 1 μg.
Where [11] appears, read: yellow sticky traps baited with 10 μg.

Entries after “also recorded” stand apart in the source; their conditions may differ.

In the data set with ACP male antennae (source dose 10^−1), `CCCCC(=O)O` [valeric acid] showed an EAG response of 0.24±0.03 mV.

`O=CO` [formic acid]: the EAG response with ACP male antennae (source dose 10^−1) is given as 1.60±0.63 mV; in the data set with ACP male antennae (source dose 10^−2), 0.42±0.37 mV; in the data set with ACP female antennae, 1.86±0.48 mV. For the same compound, the ACP adults captured in the data set on D. citri adults [1] (setting [9]) was 2.59±0.30 D. citri per trap per week; in the data set on D. citri adults [1] (setting [10]) it was 9.17±0.36 D. citri per trap per week; with D. citri adults [1] (setting [11]), 7.14±0.34 D. citri per trap per week.

Regarding `CCCCCCCCCCCCCCCCCCCCCCCCO` [240H, lignocerol, reference compound], the “Captures in treatment vs control traps” value in the data set on D. citri adults [1] (doses from 0.1 to 100 μg, each week, Dunnett P=0.2770-0.9999, n=4 per dose per week) is on record as “did not find significant differences”.

With `CCCCCC(=O)O` [hexanoic acid, reference compound], the EAG response entry in the data set with ACP male antennae (source dose 10^−1) was “no response”.

As to `CCCCCCCCCCCCCCCCCCCCCCCCOC(C)=O` [24Ac, tetracosyl acetate], the “Preference of virgin males for treatment vs control in olfactometer” value in [2] (0.1 to 100 μg as odor source, P=0.2031-0.9999) is “did not show any significant preference”. Also, the “Lure activity after 42 days” value in the data set on D. citri adults [1] (1 μg per trap, after 42 days) was “lost activity”. The “Captures in baited traps vs control traps” value in the data set with D. citri adults [1] (1 μg per trap, at 35 and 42 days) was “significantly more males were captured”; in the data set on D. citri adults [1] (1, 10 and 100 μg per trap, first weeks of the experiments), “not significantly different”; in the data set on D. citri adults [1] (1.0, 10 and 100 μg, 35 and 42 days after onset), “a significant difference was observed; also recorded: significantly higher than captures in control traps”. The Lure activity result in the data set with D. citri adults [3] (aged lures, after 3 weeks in field) is reported as “lost all activity”. Further, in the data set with D. citri adults [3] (lures aged for 35 days, first week in field), the “Males collected vs control traps” value is “collected significantly more males than control traps”. Moreover, in [4], the “Degradation of lure: volatiles detected by SPME” value is recorded as “small amounts of acetic acid in aged but not in new lures”.

On to `CC(=O)O` [acetic acid], for which the EAG response with ACP male antennae (source dose 10^−1) was 2.70±0.36 mV; in the data set with ACP male antennae (source dose 10^−2) it was 1.73±0.37 mV; in the data set with ACP male antennae (very low dose 10^−3), 0.44±0.21 mV; in the data set on ACP female antennae it was 3.22±0.94 mV. Moreover, the “Male attraction to treatment side vs control side of Y-olfactometer” value in [2] (acetic acid 0.01 μL/μL hexane, 100 μL) is recorded as “significantly more attracted”. Moreover, the “Female choice between treatment and control sides of 4-way olfactometer” value in [5] is listed as “did not distinguish”. Moreover, the “Time spent by females on treatment vs control sides of 4-way olfactometer” value in data set [5] is recorded as “not significantly different”. Further, the “Time spent by males in treatment vs control fields of 4-way olfactometer” value in data set [6] is on record as “spent significantly more time”. Also, the “Male preference for treatment fields vs control sides in 4-way olfactometer” value in data set [6] (first choice) is “highly significant”. Moreover, the “Female response to baited arm vs control side of Y-olfactometer” value in [7] was “did not differ significantly”. Moreover, in the data set on D. citri adults [1] (traps baited with 1 ug), the “Captures vs control traps, preliminary field experiments” value is listed as “captured significantly more ACP adults than control traps”. Besides, the Males caught was determined as 2.48±0.25 males per trap per day in the data set on D. citri adults [1] (traps baited with 1 μg), 3.08±0.33 males per trap per day with D. citri adults [1] (traps baited with 10 μg) and 4.23±0.35 males per trap per day in the data set with D. citri adults [1] (traps baited with 100 μg). The ACP adults captured was 7.42±0.35 D. citri per trap per week with D. citri adults [1] (setting [9]), 14.77±0.54 D. citri per trap per week in the data set on D. citri adults [1] (setting [10]) and 9.52±0.50 D. citri per trap per week in the data set with D. citri adults [1] (setting [11]). Further, in [8], the “Effect on responses from olfactory receptor neurons” value is “inhibit responses”.

For the compound `CCC(=O)O` [propionic acid], the EAG response in the data set with ACP male antennae (source dose 10^−1) is 2.22±0.29 mV; in the data set with ACP male antennae (source dose 10^−2), 1.13±0.47 mV; in the data set with ACP female antennae it was 2.90±1.09 mV. For the same compound, the ACP adults captured was 9.52±0.52 D. citri per trap per week with D. citri adults [1] (yellow sticky traps baited with 0.01 μg), 18.27±0.52 D. citri per trap per week with D. citri adults [1] (setting [9]) and 13.79±0.53 D. citri per trap per week in the data set with D. citri adults [1] (setting [10]). Further, the “Effect on responses from olfactory receptor neurons” value in data set [8] is “inhibit responses”.

As to `CCCC(=O)O` [butyric acid], the EAG response in the data set with ACP male antennae (source dose 10^−1) worked out at 0.52±0.36 mV.
